15 compounds from US5047433A, “N-alkyl derivatives of 2-amino-6,7-dimethoxy tetraline and pharmaceutical compositions having antihypertensive activity containing same” (Sigma-Tau Industrie Farmaceutiche Riunite S.p.A., priority 1986, dated 1991) can be followed below.

Series [1] in a line: Tolerability in mice (oral and intravenous). Details: species or system mouse (Male Albino Swiss). The conditions noted are these: mouse, in vivo, monitored 7 days. The method, then:
Male Albino Swiss mice weighing 22-24 g were used in this test.
One group of animals (4/does) which had been kept fasting for 18 hours was orally administered the compounds dissolved in twice distilled water. The same compounds dissolved in saline at pH-7 were intravenously injected in a further group of animals which had free access to food and drinking water. All of the animals were monitored for 7 days.

The next series has as its system Hypertensive SHR rats. As to the kind of experiment: Non-invasive measure of arterial pressure in genetically hypertensive (SHR) rats. Type of series: in vivo, rat (male SHR). The conditions noted are these: oral, 40 mg/kg. Here is the method: Male SHR rats (Charles River) of 4-6 months were used in this test. The compounds listed were dissolved in either 0.9% saline or twice distilled water and administered via the oral route (10-40 mg/5 ml/kg).
The animals, housed in individual cages at 23° C. and 60% humidity, had free access to food and drinking water. A BP recorder (Letica) equipped with a two-way polygraph was used. The systolic and diastolic pressure and the heart rate were recorded. The animals, a few days before the test began, were accustomed to be constrained on a heating plate (at 38° C.±1° C. for 20 minutes).
During the pre-tests, assessments were made at time 0 (8^30 -9^30 a.m.) and after 2 and 4 hours.
Every assessment was the average of 3-5 measures and the maximum residence time of the animal in the thermostatized chamber (for the whole test duration) was 40 minutes; the time interval between administrations of different doses of the same compound was 3 days.
(§1) Student's "t" test was used for assessing the differences with respect to the control group and its own 0 time.

The nature of series [2]: LD50 in mice (intravenous). The settings on record: mouse, in vivo, Weil's method. Here is the method: LD50 was assessed according to the Carrol S. Weil's method (Biometrics, pages 249-263 (1952)) on male Albino Swiss mice weighing 22-24 g. The compounds dissolved in […] solution were administered via the intravenous route.
Series [3] has as its system Normotensive cats. As to the kind of experiment: Measure of arterial pressure in normotensive cats. The format is in vivo, cat. The conditions noted are these: anesthetized cats, crural vein. Here is the method:
Normotensive cats of either sex weighing 2.5-3.5 kgs were used in this test.
The animals fasted for 18 hours were anesthetized with Na Nembutal (30 mg/kg) and ethyl urethane (300 mg/kg i.p.). The crural vein and artery of the animals were cannulated, the former for administering the compounds, the latter for monitoring the arterial pressure. The arterial pressure was measured via a mercury gauge connected to a rotating kymograph.
The compounds were dissolved in sterile 0.9% saline and administered at physiological pH in a 0.5 ml/kg volume.

For the next series, the system named is Hypertensive DOCA rats. Put plainly: Non-invasive measure of arterial pressure in rats made hypertensive (DOCA). The format is in vivo, rat (male Wistar). The settings on record: oral, 40 mg/kg, 2-4 hours. The method, then:
Male Wistar rats (Charles River) of 4 months were used in this test.
The compounds listed were solubilized in twice distilled water and administered via the oral route (40 mg/5 ml/kg).
The animals, housed in individual cages at 23° C. and 60% humidity, had free access to food and were made to drink 1% saline solution. The animals were administered 20 mg/kg s.c. of deoxycorticosterone acetate (DOCA) for 14 days on end.
A BP recorder (Letica) equipped with a two-way polygraph was used. The systolic and diastolic pressure, and the heart rate were recorded. The animals, a few days before the test began, were accustomed to be constrained on a heating plate (at 38° C.±1° C. for 20 minutes).
During the pre-test, assessments were made at time 0 (8^30 -9^30 a.m.) and after 2 and 4 hours.
Every assessment was the average of 3-5 measures and the maximum residence time of animal in the thermostatized chamber (for the whole test duration) was 40 minutes; the time interval between administrations of different doses of the same compound was 3 days.
as §1

Series [4] deals with Normotensive cats. As to the kind of experiment: Measure of arterial pressure in normotensive cats. The settings on record: dose 40 mg (os); entry (1). Type of series: in vivo, cat.
Setting [5] is: intravenous, read-out: Tolerability, i.v.
Where [6] appears, read: oral, fasted 18 hours, read-out: Tolerability, os.

Counter-ions that a name gives are not always drawn. Like-named read-outs stand apart in the source and are kept apart here.

`COc1cc2c(cc1OC)CC(NCC(O)c1ccc(O)cc1)CC2` (stereo not shown) [ST 558, 2-[(N-2-p-hydroxyphenyl-2-ethanol)amino]-6,7-dimethoxy tetraline hydrochloride]: the MTD at 168 h in series [1] (setting [5]) and in series [1] (setting [6]) was greater than 50 mg/kg each time. Besides, the “Arterial pressure in hypertensive SHR rats” value with Hypertensive SHR rats (3 hours) is -13 mm Hg; in the series with Hypertensive SHR rats (5 hours), -31 mm Hg.

A word on the LD50: it is the dose expected to kill half of the subjects tested. Read a low LD50 as a more toxic substance. `COc1cc2c(cc1OC)CC(NCC(O)c1ccc(C)cc1)CC2` (stereo not shown) [ST 563, 2-[(N-2-p-methylphenyl-2-ethanol)amino]-6,7-dimethoxy tetraline]: the MTD at 168 h in series [1] (setting [5]) is greater than 20 mg/kg; in series [1] (setting [6]) it was greater than 50 mg/kg. Moreover, in the series on Hypertensive SHR rats (2 hours), the “Arterial pressure in hypertensive SHR rats” value is recorded as -65 mm Hg. In addition, the median lethal dose (LD50) in series [2] was 35.7 mg/kg.

For `COc1ccc(C(O)CN(CC2CC2)C2CCc3cc(OC)c(OC)cc3C2)cc1` (stereo not shown) [ST 565, 2-[(N-methylcyclopropyl, N-p-methoxy-phenyl-2-ethanol)amino]-6,7-dimethoxy tetraline hydrochloride], the MTD at 168 h in series [1] (setting [6]) was greater than 50 mg/kg.

For `CCCN(CC(O)c1ccccc1)C1CCc2cc(OC)c(OC)cc2C1` (stereo not shown) [ST 566, 2-[(N-propyl,N-phenyl-2-ethanol)amino]-6,7-dimethoxy tetraline hydrochloride], the values for the MTD at 168 h in series [1] (setting [5]) and in series [1] (setting [6]) were greater than 20 mg/kg and greater than 50 mg/kg, respectively.

For the compound `COc1cc2c(cc1OC)CC(N(CC1CC1)CC(O)c1ccccc1)CC2` (stereo not shown) [ST 567, 2-[(N-methylcyclopropyl, N-phenyl-2-ethanol)amino]-6,7-dimethoxy tetraline hydrochloride], the MTD at 168 h in series [1] (setting [5]) was greater than 15 mg/kg; in series [1] (setting [6]) it was greater than 50 mg/kg. In series [2], this compound showed an LD50 of 30.2 mg/kg.

Take `CCN(CC(O)c1ccccc1)C1CCc2cc(OC)c(OC)cc2C1` (stereo not shown) [ST 570, 2-[(N-ethyl, N-2-phenyl-2-ethanol)amino]-6,7-dimethoxy tetraline hydrochloride]: the MTD at 168 h in series [1] (setting [5]) was greater than 20 mg/kg. Also, in series [1] (setting [6]), the MTD at 168 h is greater than 50 mg/kg. Also, in the series with Normotensive cats [3] (dose 1 mg/kg), the “Arterial pressure in normotensive cats, hypotension” value (“Arterial pressure … hypotension” for short) worked out at 64 mm Hg and the “Times of effect duration (hypotension in normotensive cats)” value (from here on “Times of effect duration”) was “L (long >30 minutes)”. The “Arterial pressure in hypertensive SHR rats” value with Hypertensive SHR rats (2 hours) is on record as -29 mm Hg. In series [2], this compound came in with a median lethal dose (LD50) of 34.9 mg/kg.

Consider `CCCN(CC(O)c1ccc(C)cc1)C1CCc2cc(OC)c(OC)cc2C1` (stereo not shown) [ST 571, 2-[(N-propyl,N-2-p-methylphenyl-2-ethanol)amino]-6,7-dimethoxy tetraline hydrochloride], for which the MTD at 168 h in series [1] (setting [5]) was greater than 30 mg/kg; in series [1] (setting [6]), greater than 50 mg/kg. Besides, in the series with Normotensive cats [3] (dose 1-2-4 mg/kg), the “Times of effect duration” value is “M/B”. The compound also returned an LD50 in series [2] of 42.3 mg/kg.

For the compound `COc1cc2c(cc1OC)CC(N(CC1CC1)CC(O)c1ccc(C)cc1)CC2` (stereo not shown) [ST 574, 2-[(N-methylcyclopropyl, N-p-methylphenyl-2-ethanol)amino]-6,7-dimethoxy tetraline hydrochloride], the MTD at 168 h was greater than 30 mg/kg in series [1] (setting [5]) and greater than 50 mg/kg in series [1] (setting [6]). Besides, in the series on Normotensive cats [3] (dose 1-2-4 mg/kg), the “Times of effect duration” value is listed as “M/B”.

`CCN(CCc1ccccc1)C1CCc2cc(OC)c(OC)cc2C1` (stereo not shown) [ST 577, 2-[(N-ethyl, N-2-phenylethyl)amino]-6,7-dimethoxy tetraline hydrochloride]: the MTD at 168 h in series [1] (setting [5]) is greater than 20 mg/kg; in series [1] (setting [6]), greater than 50 mg/kg. Also, the “Arterial pressure … hypotension” value in the series with Normotensive cats [3] (dose 1 mg/kg) is recorded as 20 mm Hg; in the series on Normotensive cats [3] (dose 2 mg/kg), 44 mm Hg. For the same compound, the “Times of effect duration” value in the series on Normotensive cats [3] (dose 1 mg/kg) is “L (long >30 minutes)”; in the series on Normotensive cats [3] (dose 2 mg/kg), “M (average ≤30 minutes)”. Besides, the median lethal dose (LD50) in series [2] was 35.7 mg/kg.

On to `COc1ccc(C(O)CNC2CCc3cc(OC)c(OC)cc3C2)cc1` (stereo not shown) [ST 578, 2-[(N-2-p-methoxyphenyl-2-ethanol)amino]-6,7-dimethoxy tetraline hydrochloride], for which the MTD at 168 h was greater than 15 mg/kg in series [1] (setting [5]) and greater than 50 mg/kg in series [1] (setting [6]). The “Times of effect duration” value with Normotensive cats [3] (dose 1-2-4 mg/kg) is listed as “B/L”. For the same compound, the entries for the “Arterial pressure in hypertensive SHR rats” value in the series with Hypertensive SHR rats (3 hours) and with Hypertensive SHR rats (5 hours) were -40 mm Hg and -27 mm Hg, respectively. Also, the LD50 in series [2] turned out to be 27.7 mg/kg.

Turning to `COc1cc2c(cc1OC)CC(NCC(O)c1ccccc1)CC2` (stereo not shown) [ST 579, 2-[(N-2-phenyl-2-ethanol)amino]-6,7-dimethoxy tetraline hydrochloride], the MTD at 168 h in series [1] (setting [5]) was greater than 20 mg/kg; in series [1] (setting [6]), greater than 50 mg/kg. Moreover, in the series with Hypertensive SHR rats (2 hours), the “Arterial pressure in hypertensive SHR rats” value is -26 mm Hg. In addition, the “Arterial pressure in hypertensive DOCA rats” value with Hypertensive DOCA rats is -20 mm Hg. The same compound yielded a 50% lethal dose (LD50) in series [2] of 35.7 mg/kg.

On to `COc1cc2c(cc1OC)CC(NCC(O)c1ccc(C(F)(F)F)cc1)CC2` (stereo not shown) [ST 590, 2-[(N-2-p-trifluoromethylphenyl-2-ethanol)amino]6,7-dimethoxy tetraline hydrochloride], for which the MTD at 168 h in series [1] (setting [5]) was greater than 50 mg/kg. Also, the MTD at 168 h in series [1] (setting [6]) was greater than 50 mg/kg. Moreover, in the series with Normotensive cats [4], the “Arterial pressure … hypotension” value is reported as 39 mm Hg and the “Times of effect duration” value is on record as “L (long >30 minutes)”.

Consider `CCN(CC(O)c1ccc(C(F)(F)F)cc1)C1CCc2cc(OC)c(OC)cc2C1` (stereo not shown) [ST 592, 2-[(N-ethyl, N-2-p-trifluoromethylphenyl-2-ethanol)-amino]-6,7-dimethoxy tetraline hydrochloride], for which the MTD at 168 h was greater than 30 mg/kg in series [1] (setting [5]) and greater than 50 mg/kg in series [1] (setting [6]).

For `COc1cc2c(cc1OC)CC(NCC(O)c1ccc(F)cc1)CC2` (stereo not shown) [ST 593, 2-[(N-2-p-fluorophenyl-2-ethanol)amino]-6,7-dimethoxy tetraline hydrochloride], the MTD at 168 h in series [1] (setting [5]) and in series [1] (setting [6]) was greater than 50 mg/kg each time. Further, the figures for the “Arterial pressure … hypotension” value with Normotensive cats [3] (dose 1 mg/kg), with Normotensive cats [3] (dose 2 mg/kg) and with Normotensive cats [3] (dose 4 mg/kg) were 12 mm Hg, 16 mm Hg and 26 mm Hg, respectively. For the same compound, the “Times of effect duration” value in the series with Normotensive cats [3] (dose 1-2-4 mg/kg) is listed as “M/B”.

Consider `COc1cc2c(cc1OC)CC(NCC(OC)c1ccccc1)CC2` (stereo not shown) [ST 600, 2-[(N-2-phenyl-2-methoxyethyl)amino]-6,7-dimethoxy tetraline hydrochloride], for which the MTD at 168 h in series [1] (setting [5]) is greater than 20 mg/kg; in series [1] (setting [6]), greater than 50 mg/kg. The “Arterial pressure … hypotension” value turned out to be 28 mm Hg in the series with Normotensive cats [3] (dose 2 mg/kg) and 54 mm Hg in the series on Normotensive cats [3] (dose 4 mg/kg). Also, the entries for the “Times of effect duration” value in the series with Normotensive cats [3] (dose 2 mg/kg) and in the series with Normotensive cats [3] (dose 4 mg/kg) were “B (short <5 minutes)” and “M (average ≤30 minutes)”, respectively. The 50% lethal dose (LD50) in series [2] is 29.7 mg/kg.
